Data on four molecules can be found in US8193238B2, “Inhibition of microtubule protrusion in cancer cells” (University of Maryland, Baltimore, priority 2006, dated 2012).

“Also recorded” adds a separate entry of the source. Bounds are passed on as bounds.

One series relates to Bt-474. Description: GFP-membrane protrusion counts after local anesthetics (Bt-474). Type of series: cell-based, human. The settings on record: Bt-474, GFP-membrane; Lidocaine 50 mM, Tetracaine 2.5 mM; with or without LA. The method, then: (§1) Cells were then suspended in DMEM culture media with or without […] Latrunculin-A (LA) to induce protrusions by depolymerizing actin. […] Bars represent mean+S.D. of at least three blindly counted experiments.

Another series has as its system MDA-231. As to the kind of experiment: GFP-membrane protrusion counts after local anesthetics (MDA-231). Type of series: cell-based, human. The settings on record: MDA-231, GFP-membrane; Lidocaine 50 mM, Tetracaine 2.5 mM; with or without LA. The method, then: as §1
The subject of series [1] is MCF10A cells. The settings on record: MCF10A treated two hours.
For a further series, the system named is metastasis. The settings on record: known, via unclear mechanism; cited from earlier work.
For series [2], the system named is MCF10A cells. Description: Chemical inhibition of Latrunculin-A-enhanced microtubule protrusions in suspended cells. Type of series: cell-based, human. As to the method: MCF10A cells were placed into suspension in the presence of the indicated chemical inhibitors targeted at specific signaling pathways or the corresponding vehicle controls. Cells were then treated with the actin polymerization inhibitor, Latrunculin-A (LA, 5 μM) for one hour to enhance protrusions. […] Thus, protrusions can be reduced by chemical inhibition of specific signaling proteins.

In another series the test system is cells. Type of series: cell-based. The settings on record: indicated concentrations, 2 hours.
Series [3] deals with detached mammary epithelial cells. Description: Protrusions of detached mammary epithelial cells, general statements. Type of series: cell-based, human and mouse. As to the method: Time-lapse video microscopy of detached mammary epithelial cells detected the extension of long, dynamic protrusions of the plasma membrane, and the present inventors have characterized the cytoskeletal mechanism underlying this novel observation. […] This response may be relatively short-lived, in specific embodiments, since mammary epithelial cells die by apoptosis within about 24 hours in suspension. However, cell lines that resist apoptosis through expression of either Bcl-2 or Bcl-xL will persistently form protrusions. Previous studies by the inventors indicate that such apoptotically-resistant cell lines will not form tumors in mice and lie dormant in distant tissues, in specific embodiments of the invention. […] These microtubule processes can extend more than 3 times the cell diameter, and undergo a rapid probing motion more than once per second. Formation of these microtubule protrusions is necessary for efficient cell-cell and cell-substratum attachment. In particular embodiments of the invention, this inherent microtubule response in detached mammary epithelial cells provides at least some of the invasive characteristics of breast cancer, independent of any tumor-specific genetic alteration, for example.
Breast tumor cells enter the bloodstream long before the development of clinically evident metastasis. However, the early presence of such bloodborne cells predicts poor patient outcome. Nearly 90% of human breast tumors arise as carcinomas from mammary epithelial cells, so it is important to characterize how these cells respond to the detached conditions that they would experience in the bloodstream. In the present invention, mammary epithelial cell lines produce long and dynamic protrusions of the plasma membrane when detached. Although human and mouse mammary epithelial cell lines die by apoptosis within 16 hours of detachment, this protrusive response persists for days in cells overexpressing either Bcl-2 or Bcl-xL, for example. […] Since bloodborne metastasis depends on both cell-cell and cell-matrix attachment, microtubule-based protrusions in detached mammary epithelial cells provide a novel target that could influence the metastatic spread of breast tumors.
Detachment-induced increases in Glu-tubulin could promote plasma membrane protrusions of microtubules by preventing efficient capture at the actin cortex. […] Therefore, our current model is that detachment increases stabilized microtubules enriched in Glu-tubulin, while decreased actin polymerization simply promotes extension of these microtubule protrusions.

A further series has as its system EpH4 cells. Description: Protrusions in suspended cells treated with cytoskeletal inhibitors (EpH4). The series is classed as cell-based, mouse. The settings on record: EpH4, 15 minutes of suspension; Latrunculin-A 5 μM, Colchicine 1 μM. The method, then: (§2) In FIG. 2A, after 15 minutes of suspension, protrusions in EpH4 and MCF10A cells are quite small (Control, white arrows). […] In FIG. 2B, populations of live, suspended cells were scored blindly for two or more protrusions longer than the cell radius. Each bar represents the mean+S.D. for three experiments in which at least 100 single cells were counted.
EpH4 cells were suspended in either DMEM (Control) or media containing 5 μM Latrunculin-A (LA), 1 μM Colchicine or the combination of both drugs for 30 minutes. Cells were then spun onto glass coverslips and fluorescently stained for α-tubulin (green) and polymerized actin (red). Protrusions that are difficult to see by phase contrast are easily discernible with immunostaining for α-tubulin (white arrows). Protrusions contain little polymerized actin, except at points of concentration, which are often at the end (arrowhead).
EpH4 and B19 cells were suspended over 2% agarose coated plates to prevent attachment in either serum-free DMEM or media containing. Latrunculin-A (5 μM) to enhance protrusions. For co-staining of α-tubulin and actin, suspended cells were then centrifuged onto poly-L-lysine coated coverslips (280 g×5 min), fixed in 3.7% formaldehyde in PBS for 10 min, and permeablized with 0.1% Triton X-100 in PBS. Adhered cells were then stained for 1 hr at room temperature using FITC-conjugated anti-α-tubulin (1:200; Sigma), Alexa-594 phalloidin (1:100; Molecular Probes), and Hoescht 33342 (1:5000; Sigma).
(§3) In order to initially characterize the cytoskeletal mechanism underlying these protrusions, suspended cells were treated with inhibitors of actin and tubulin polymerization (FIG. 2). After 15 minutes of suspension, the protrusions in untreated EpH4 or MCF10A cells remain fairly short (FIG. 2, white arrows). These early protrusions can often be difficult to detect with phase-contrast microscopy, due to interfering light refraction from the plasma membrane. […] Protrusions were more easily visible with immunofluorescence than phase contrast microscopy (FIG. 3, white arrows). Although actin filament staining was generally low along the length of the protrusion, dense points of actin were often found at the end of protrusions (FIG. 3, arrowheads).

Series [4] has as its system MCF10A cells. Description: Protrusions in suspended cells treated with cytoskeletal inhibitors (MCF10A). Type of series: cell-based, human. The settings on record: MCF10A, 15 minutes of suspension; Latrunculin-A 5 μM, Colchicine 1 μM. As to the method:
as §2, §3
The nontumorigenic human mammary epithelial cell line (MCF10A) or the indicated human breast tumor cell lines were grown in suspension for 30-60 minutes, and protrusions were counted in random fields with phase-contrast microscopy. Values represent the mean±S.D. of three experiments in which at least 100 cells were counted. […] This effect was most apparent in the highly metastatic but exemplary Bt-474 and MDA-MB-231 cells (pictured, black arrows). The exemplary MCF10A cells show far fewer and shorter protrusions at the same time point (pictured, white arrows). Such protrusions are not observed in attached cells.

The subject of series [5] is chicken erythrocytes from day 2 embryos. The settings on record: cited from earlier work.

Regarding `CCCCNc1ccc(C(=O)OCCN(C)C)cc1` [Tetracaine], the protrusions entry in the series on Bt-474 and with MDA-231 was “inhibited significantly” each time. In addition, the “concentration showing significant cell toxicity” value in the series with MCF10A cells [1] is ≥ 3000 µM. For the same molecule, the cell toxicity result with MCF10A cells [1] (Lidocaine up to 50 mM) is reported as “cytotoxic”. Also, in the series on metastasis, the metastasis result was “reduce metastasis”.
Take `CCN(CC)CC(=O)Nc1c(C)cccc1C` [Lidocaine]: the protrusions result in the series with Bt-474 and with MDA-231 was “inhibited significantly” in each case. Also, the metastasis entry with metastasis is “reduce metastasis”.
Consider `Cn1sc(=O)n(Cc2ccccc2)c1=O` [TDZD-8], for which the protrusions entry with MCF10A cells [2] (MCF10A in suspension, then LA 5 μM one hour, sodium orthovanadate 1 mM, S-Trityl-L-Cysteine 100 μM, TDZD-8 20 μM) was “strongest inhibition of protrusions”. Besides, the protrusion frequency entry with MCF10A cells [2] (one hour of treatment) is reported as “reduce protrusion frequency significantly”. In addition, the cell viability entry in the series with cells is reported as “did not reduce cell viability significantly”.
As for `C=C1[C@@H](C)[C@H]2[C@H](Cc3ccccc3)NC(=O)[C@]23[C@H](OC(C)=O)/C=C/[C@@](C)(O)C(=O)[C@@H](C)C/C=C/[C@H]3[C@@H]1O` [Cytochalasin-D], the protrusions result in [3] is recorded as “enhanced; also recorded: promotes the extension of microtubule protrusions”; with EpH4 cells it was “increased protrusions”; in the series with MCF10A cells [4] it was “increased protrusions”. The microtubule processes entry in series [5] is given as “promotes microtubule processes”.
